What all share (format): cell-based, human
Data set [1] has as its system peripheral blood mononuclear cells derived from a cancer patient. Briefly: CTL induction by peptide from autologous PBMC of cancer patient, IFN-γ production on recognition of target cells (Example 5). The conditions noted are these: for IFN-γ production from peripheral blood mononuclear cells in recognition of target cells: PBMC stimulated with 10 μM peptide. An excerpt: Among the peptides that were able to enhance IFN-γ production from the OK-CTLp or OK-CTL clone in Example 4, those from P1 to P19 were examined for their ability to induce CTL from peripheral blood mononuclear cells derived from a cancer patient. The method for inducing CTL by a peptide was according to the well-known method (J. Exp. Med., 187:277-288, 1998; Cancer Res., 59:4056-4063, 1999.) Specifically, autologous peripheral blood mononuclear cells (PBMC) derived from a cancer patient, from whom OK-CTLp was obtained, were incubated together with the peptide (10 μM.) The cells were re-stimulated at day 10 and 14 after the start of culturing, using autologous PBMCs as an antigen presenting cell (APC) which were pulsed with 10 μM of the same peptide for 2 h and exposed to irradiation (30 gray.) At day 21 after the start of culturing, the cells were collected to test for surface phenotype. In addition, the cells were examined for the recognition of various target cells, using IFN-γ production measured by ELISA when they were cultured together with the target cells as an indicator. As a target cells, SW620 cell, CA9-22 cell, and Panc-1 cell, which are the HLA-A2^+ tumor cells, were used.

Data set [2] has the same test system. The data set is described as above. The conditions noted are these: PBMC stimulated with 10 μM peptide.
In a further data set the test system is OK-CTL clone. Briefly: IFN-γ production by OK-CTL clones cultured with COS-7 cells cotransfected with cDNA clone and HLA-A0207 cDNA. Set-up: unit not given here. How it is done: Since CTL activated by recognizing the tumor antigen is a population of cells recognizing plural kinds of tumor antigens, the above-described OK-CTLp was subjected to cloning by limiting dilution culture (0.3, 0.5, 1, 2, and 4 cells/well) to obtain an OK-CTL clone (J. Immunol., 163:4994-5004, 1999. ) These clones are those having CTL activity selected by culturing them together with COS-7 cells into which 100 ng/well of any one of the above-described seven cDNA clones and 100 ng/well of HLA-A0207 cDNA were cotransfected, or with the tumor cells, in a cell ratio of 1:1, and measuring IFN-γ production. Specifically, three hundred CTL clones were obtained from the parent line OK-CTLp by a limiting dilution culture. Eighty CTL clones among them had HLA-A2-restricted tumor-specific CTL activity and expressed the phenotype of CD3^+ CD4^− CD8^+ and TCR αβ^+.

Setting [3] is: CTL clone 0.5-1-D6, cDNA with HLA-A0207 cDNA in COS-7.
The mark [4] stands for this setting: CTL clone 0.5-1-D7, cDNA with HLA-A0207 cDNA in COS-7.
Setting [5] is: CTL clone 0.5-1-H2, cDNA with HLA-A0207 cDNA in COS-7.
Where [6] appears, read: CTL clone 0.5-1-H12, cDNA with HLA-A0207 cDNA in COS-7.
Setting [7] is: CTL clone 0.5-2-A4, cDNA with HLA-A0207 cDNA in COS-7.
The mark [8] stands for this setting: CTL clone 1-2-D1, cDNA with HLA-A0207 cDNA in COS-7.
[9] abbreviates: CTL clone 1-2-D7, cDNA with HLA-A0207 cDNA in COS-7.
The mark [10] stands for this setting: CTL clone 1-2-D12, cDNA with HLA-A0207 cDNA in COS-7.
The mark [11] stands for this setting: CTL clone 2-1-F4, cDNA with HLA-A0207 cDNA in COS-7.
[12] abbreviates: CTL clone 2-1-H12, cDNA with HLA-A0207 cDNA in COS-7.
Setting [13] is: CTL clone 2-2-B4, cDNA with HLA-A0207 cDNA in COS-7.
[14] abbreviates: CTL clone 2-2-H3, cDNA 100 ng/well with HLA-A0207 cDNA in COS-7.
[15] abbreviates: CTL clone 4-1-H8, cDNA with HLA-A0207 cDNA in COS-7.
Where [16] appears, read: CTL clone 4-2-A11, cDNA with HLA-A0207 cDNA in COS-7.
Setting [17] is: CTL clone 4-2-B3, cDNA with HLA-A0207 cDNA in COS-7.

The results in this text go back to patent US7524930B2, “Tumor antigen” (Green Peptide Co., Ltd, priority 2003, dated 2009).

Where only a bound is given, the exact number is not on record here.

In the case of “ALVEFEDVL (Designed peptide having an ability to activate HLA-A2 restricted Cytotoxic T lymphocytes) [Peptide P6, Gene 2 (HNRPL) 140-148]”, in data set [1] (SW620, CA9-22 and Panc-1 HLA-A2+ tumor cells, result in words), the “Recognition of tumor cells by PBMC stimulated in vitro with peptide (IFN-γ production)” value is reported as “produced IFN-γ in a significant amount”. The “IFN-γ production from peripheral blood mononuclear cells in recognition of target cells” value amounted to 863 pg/mL in data set [1] (target CA9-22 (HLA-A0207/24)); 527 pg/mL in data set [1] (target Panc-1 (HLA-A0201/11)); 344 pg/mL in data set [1] (target SW620 (HLA-A0201/24)); 40 pg/mL in data set [2] (target COLO320 (HLA-A24/24)); 0 pg/mL in data set [2] (target QG56 (HLA-A26/26)); 8 pg/mL in data set [2] (target RERF-LC-MS (HLA-A11/11)).

Regarding “Clone 5: cDNA clone from Panc-1, 2404 bp [AB044546], homology with ppMAPkkk”, the “IFN-γ production by CTL clone” value turned out to be 0 with OK-CTL clone (setting [3]); 0 in the data set on OK-CTL clone (setting [4]); 81 with OK-CTL clone (setting [5]); 0 with OK-CTL clone (setting [6]); 0 with OK-CTL clone (setting [7]); 0 in the data set with OK-CTL clone (setting [8]). The “IFN-γ production by CTL clone” value in the data set with OK-CTL clone (setting [9]) is given as 0; in the data set with OK-CTL clone (setting [10]), 0; in the data set on OK-CTL clone (setting [11]) it was over 1000; with OK-CTL clone (setting [12]), 0; in the data set with OK-CTL clone (setting [13]), 0; in the data set on OK-CTL clone (setting [14]), 0. Further, the “IFN-γ production by CTL clone” value in the data set on OK-CTL clone (setting [15]), with OK-CTL clone (setting [16]) and with OK-CTL clone (setting [17]) was 0 in each case.

Consider “clone 1: cDNA clone from Panc-1, 1775 bp [AB044550], high homology with UBE2V”, for which the “IFN-γ production by CTL clone” value in the data set with OK-CTL clone (setting [3]) was found to be 19; in the data set on OK-CTL clone (setting [4]), 27; with OK-CTL clone (setting [5]), 0; with OK-CTL clone (setting [6]), 0; in the data set on OK-CTL clone (setting [7]), 0; in the data set on OK-CTL clone (setting [8]) it was 21. Also, the “IFN-γ production by CTL clone” value in the data set on OK-CTL clone (setting [9]) was determined as 0; in the data set with OK-CTL clone (setting [10]), 0; with OK-CTL clone (setting [11]) it was 0; in the data set on OK-CTL clone (setting [12]) it was 134; with OK-CTL clone (setting [13]) it was 0; in the data set with OK-CTL clone (setting [14]) it was 110. The “IFN-γ production by CTL clone” value in the data set on OK-CTL clone (setting [15]), in the data set on OK-CTL clone (setting [16]) and with OK-CTL clone (setting [17]) was 0 each time.

In the case of “clone 2: cDNA clone from Panc-1, 2097 bp [AB044547], high homology with HNRPL”, the “IFN-γ production by CTL clone” value with OK-CTL clone (setting [3]) is listed as 0; in the data set with OK-CTL clone (setting [4]), 34; in the data set with OK-CTL clone (setting [5]), 0; with OK-CTL clone (setting [6]), 0; in the data set with OK-CTL clone (setting [7]), 0; in the data set with OK-CTL clone (setting [8]) it was 0. The “IFN-γ production by CTL clone” value in the data set with OK-CTL clone (setting [9]) is on record as 200; in the data set with OK-CTL clone (setting [10]) it was over 1000; in the data set with OK-CTL clone (setting [11]) it was 0; in the data set with OK-CTL clone (setting [12]), 0; in the data set on OK-CTL clone (setting [13]), 0; with OK-CTL clone (setting [14]), 0. For the same molecule, the “IFN-γ production by CTL clone” value in the data set with OK-CTL clone (setting [15]) was 133; in the data set on OK-CTL clone (setting [16]), 0; in the data set on OK-CTL clone (setting [17]), 0.

Consider “clone 3: cDNA clone from Panc-1, 2243 bp [AB044549], high homology with WHSC2”, for which the “IFN-γ production by CTL clone” value with OK-CTL clone (setting [3]) is 0; in the data set with OK-CTL clone (setting [4]), 0; in the data set on OK-CTL clone (setting [5]), 0; in the data set on OK-CTL clone (setting [6]), 0; in the data set with OK-CTL clone (setting [7]) it was 0; in the data set on OK-CTL clone (setting [8]), 22. The “IFN-γ production by CTL clone” value in the data set with OK-CTL clone (setting [9]), in the data set on OK-CTL clone (setting [10]), in the data set on OK-CTL clone (setting [11]), with OK-CTL clone (setting [12]), in the data set on OK-CTL clone (setting [13]) and in the data set on OK-CTL clone (setting [14]) was 0 throughout. Further, the “IFN-γ production by CTL clone” value in the data set with OK-CTL clone (setting [15]) was determined as 0; with OK-CTL clone (setting [16]), 100; in the data set on OK-CTL clone (setting [17]) it was 0.

Consider “clone 6: cDNA clone from Panc-1, 6707 bp [AB044545], homology with 2-5 OAS3”, for which the “IFN-γ production by CTL clone” value is listed as 13 in the data set on OK-CTL clone (setting [3]); 110 in the data set on OK-CTL clone (setting [4]); 0 with OK-CTL clone (setting [5]); 0 with OK-CTL clone (setting [6]); 113 in the data set on OK-CTL clone (setting [7]); 61 in the data set with OK-CTL clone (setting [8]). Also, the “IFN-γ production by CTL clone” value in the data set with OK-CTL clone (setting [9]) is on record as 0; in the data set on OK-CTL clone (setting [10]), 0; with OK-CTL clone (setting [11]), 0; with OK-CTL clone (setting [12]) it was 0; with OK-CTL clone (setting [13]), over 1000; with OK-CTL clone (setting [14]), 0. Besides, the “IFN-γ production by CTL clone” value in the data set with OK-CTL clone (setting [15]), in the data set with OK-CTL clone (setting [16]) and in the data set on OK-CTL clone (setting [17]) was 0 throughout.

B1: clone 4: cDNA clone from Panc-1, 831 bp [AB044548], high homology with EIF4EBP1 (nucleic acid, listed as Homo sapiens)
DNA: GCGGGAGGGCAGCGAGAGGTTCGCGGGTGCAGCGCACAGGAGACCATGTCCGGGGGCAGCAGCTGCAGCCAGACCCCAAGCCGGGCCATCCCCGCCACTCGCCGGGTGGTGCTCGGCGACGGCGTGCAGCTCCCGCCCGGGGACTACAGCACGACCCCCGGCGGCACGCTCTTCAGCACCACCCCGGGAGGTACCAGGATCATCTATGACCGGAAATTCCTGATGGAGTGTCGGAACTCACCTGTGACCAAAACACCCCCAAGGGATCTGCCCACCATTCCGGGGGTCACCAGCCCTTCCAGTGATGAGCCCCCCATGGAAGCCAGCCAGAGCCACCTGCGCAATAGCCCAGAAGATAAGCGGGCGGGCGGTGAAGAGTCACAGTTTGAGATGGACATTTAAAGCACCAGCCATCGTGTGGAGCACTACCAAGGGGCCCCTCAGGGCCTTCCTGGGAGGAGTCCCACCAGCCAGGCCTTATGAAAGTGATCATACTGGGCAGGCGTTGGCGTGGGGTCGGACACCCCAGCCCTTTCTCCCTCACTCAGGGCACCTGCCCCCTCCTCTTCGTGAACACCAGCAGATACCTCCTTGTGCCTCCACTGATGCAGGAGCTGCCACCCCAAGGGGAGTGACCCCTGCCAGCACACCCTGCAGCCAAGGGCCAGGAAGTGGACAAGAACGAACCCTTCCTTCCGAATGATCAGCAGTTCCAGCCCCTCGCTGCTGGGGGCGCAACCACCCCTTCCTTAGGTTGATGTGCTTGGGAAAGCTCCCTCCCCCTCCTTCCCCAAGAGAGGAAATAAAAGCCACCTTCGCCCTAGGGCCAAG
modifications: polyA_site (831)..(831)
As for B1, the “IFN-γ production by CTL clone” value was 118 with OK-CTL clone (setting [3]); 0 in the data set with OK-CTL clone (setting [4]); 0 in the data set on OK-CTL clone (setting [5]); over 1000 in the data set on OK-CTL clone (setting [6]); 0 in the data set on OK-CTL clone (setting [7]); 44 in the data set with OK-CTL clone (setting [8]). Moreover, the “IFN-γ production by CTL clone” value in the data set with OK-CTL clone (setting [9]), in the data set with OK-CTL clone (setting [10]), in the data set on OK-CTL clone (setting [11]), with OK-CTL clone (setting [12]), in the data set with OK-CTL clone (setting [13]) and with OK-CTL clone (setting [14]) was 0 each time. In addition, the figures for the “IFN-γ production by CTL clone” value with OK-CTL clone (setting [15]), with OK-CTL clone (setting [16]) and with OK-CTL clone (setting [17]) were 0, 0 and 95, respectively.
